Reference: US11098058B2, “Bicyclic ketone compounds and methods of use thereof” (Genentech, Inc., priority 2017, dated 2021)

Biological target: human RIP1 kinase domain (2-375) (Homo sapiens (Human), UniProt Q13546)
Assay: biochemical
Details: 50 nM enzyme, 50 μM ATP, 2 hours incubation
[1] = tight-binding apparent inhibition constant (Ki app, Morrison equation)
[2] = RIP1 kinase inhibition, tight-binding apparent Ki

human RIP1 kinase domain (2-375), sequence (Q13546 2-375): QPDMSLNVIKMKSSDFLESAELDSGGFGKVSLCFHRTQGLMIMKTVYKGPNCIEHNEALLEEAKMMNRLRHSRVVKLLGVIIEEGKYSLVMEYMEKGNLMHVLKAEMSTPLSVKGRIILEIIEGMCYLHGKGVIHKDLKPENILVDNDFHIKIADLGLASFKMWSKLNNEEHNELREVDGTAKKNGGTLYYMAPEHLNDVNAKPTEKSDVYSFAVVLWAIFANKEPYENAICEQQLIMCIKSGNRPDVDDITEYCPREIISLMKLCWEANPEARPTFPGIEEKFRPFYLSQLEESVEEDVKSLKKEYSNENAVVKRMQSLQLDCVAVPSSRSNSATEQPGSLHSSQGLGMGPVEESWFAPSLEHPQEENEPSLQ
Protocol: RIP1 Kinase Inhibition Assays (Biochemical Assay)
The ability of the receptor interacting protein kinase (RIPK1) to catalyze the hydrolysis of adenosine-5′-triphosphate (ATP) is monitored using the Transcreener ADP (adenosine-5′-diphosphate) assay (BellBrook Labs). Purified human RIP1 kinase domain (2-375) (50 nM) derived from a baculovirus-infected insect cell expression system is incubated with test compounds for 2 hours in 50 mM Hepes buffer (pH 7.5) containing 30 mM MgCl2, 1 mM dithiothreitol, 50 μM ATP, 0.002% Brij-35, and 0.5% dimethyl sulfoxide (DMSO). […] The tracer bound to the antibody is displaced by the ADP generated during the RIP1K reaction, which causes a decrease in fluorescence polarization that is measured by laser excitation at 633 nm with a FP microplate reader M1000. Fractional activity was plotted against test article concentration. Using Genedata Screener software (Genedata; Basel, Switzerland), the data were fit to the tight-binding apparent inhibition constant (Ki^app) Morrison equation [Williams, J. W. and Morrison, J. F. (1979) The kinetics of reversible tight-binding inhibition. […] The following equation was used to calculate fractional activity and Ki^app:
[formula] where [E]T and [I]T are the total concentrations of active enzyme and test article, respectively.

Structure (SMILES)	Ki [1]	Ki [2]
O=C(c1nc2n(n1)[C@H](c1ccccc1)C[C@@H]2F)C1(F)CC1 (single isomer, unassigned) [Example 61]	0.3 nM	–
CCC1(C(=O)c2nc3n(n2)[C@H](c2ccccc2)C[C@@H]3F)CC1 (racemic) [Example 125, (1-ethylcyclopropyl)-[rac-(5S,7S)-7-fluoro-5-phenyl-6,7-dihydro-5H-pyrrolo[1,2-b][1,2,4]triazol-2-yl]methanone]	–	4 nM
O=C(c1nc2n(n1)[C@H](c1ccccc1)C[C@@H]2F)[C@@H]1CCOC1 (racemic) [Example 132, [rac-(5S,7S)-7-fluoro-5-phenyl-6,7-dihydro-5H-pyrrolo[1,2-b][1,2,4]triazol-2-yl]-[rac-(3R)-tetrahydrofuran-3-yl]methanone]	–	< 5 nM
O=C(c1cc2n(n1)[C@H](c1ccccc1)C[C@@H]2F)C1CC1 (racemic) [Example 78, cyclopropyl-[rac-(4S,6S)-4-fluoro-6-phenyl-5,6-dihydro-4H-pyrrolo[1,2-b]pyrazol-2-yl]methanone]	–	20 nM
O=C(c1nc2n(n1)[C@H](c1ccccc1)C[C@@H]2F)[C@@]12COC[C@@H]1C2 (racemic) [Example 143, [rac-(5S,7S)-7-fluoro-5-phenyl-6,7-dihydro-5H-pyrrolo[1,2-b][1,2,4]triazol-2-yl]-[rac-(1R,5R)-3-oxabicyclo[3.1.0]hexan-1-yl]methanone]	–	< 5 nM
N#C[C@@H]1C[C@H]1C(=O)c1nc2n(n1)[C@H](c1ccccc1)C[C@@H]2F (mixture of isomers) [Example 105, rac-(1R,2R)-2-[(5S,7S)-7-fluoro-5-phenyl-6,7-dihydro-5H-pyrrolo[1,2-b][1,2,4]triazole-2-carbonyl]cyclopropanecarbonitrile]	–	13 nM
O=C(Cc1ccccc1)c1nc2n(n1)[C@H](c1ccccc1)C[C@@H]2F (racemic) [Example 7, 2-phenyl-1-[rac-(5S,7S)-7-fluoro-5-phenyl-6,7-dihydro-5H-pyrrolo[1,2-b][1,2,4]triazol-2-yl]ethanone]	12.2 nM	–
O=C(c1nc2n(n1)[C@H](c1ccccc1)C[C@@H]2F)[C@H]1CCOC1 (racemic) [Example 131, [rac-(5S,7S)-7-fluoro-5-phenyl-6,7-dihydro-5H-pyrrolo[1,2-b][1,2,4]triazol-2-yl]-[rac-(3S)-tetrahydrofuran-3-yl]methanone]	–	< 5 nM
O=C(c1nc2n(n1)[C@H](c1ccccc1)C[C@@H]2F)[C@@H]1CC12CC2 (racemic) [Example 163, [rac-(5S,7S)-7-fluoro-5-phenyl-6,7-dihydro-5H-pyrrolo[1,2-b][1,2,4]triazol-2-yl]-[rac-(2R)-spiro[2.2]pentan-2-yl]methanone]	–	4 nM
O=C(CC(F)(F)F)c1nc2n(n1)[C@@H](c1ccccc1)C[C@H]2F (racemic) [Example 29, 3,3,3-trifluoro-1-[rac-(5R,7R)-7-fluoro-5-phenyl-6,7-dihydro-5H-pyrrolo[1,2-b][1,2,4]triazol-2-yl]propan-1-one]	134 nM	–
O=C(c1nc2n(n1)[C@H](c1ccccc1)C[C@@H]2F)C1COC1 (racemic) [Example 57, oxetan-3-yl-[rac-(5S,7S)-7-fluoro-5-phenyl-6,7-dihydro-5H-pyrrolo[1,2-b][1,2,4]triazol-2-yl]methanone]	42.3 nM	–
CCC(=O)c1nc2n(n1)[C@H](c1ccccc1F)CC2 (racemic) [Example 31, 1-[rac-(5S)-5-(2-fluorophenyl)-6,7-dihydro-5H-pyrrolo[1,2-b][1,2,4]triazol-2-yl]propan-1-one]	7.39 nM	–
[2H][C@@]1(Cl)C[C@@H](c2ccccc2)n2nc(C(=O)C3CC3)nc21 (racemic) [Example 120, cyclopropyl-[rac-(5S,7R)-7-chloro-7-deuterio-5-phenyl-5,6-dihydropyrrolo[1,2-b][1,2,4]triazol-2-yl]methanone]	–	910 nM
O=C(c1nc2n(n1)[C@H](c1ccccc1)C[C@@H]2F)[C@]12COC[C@H]1C2 (racemic) [Example 144, [rac-(5S,7S)-7-fluoro-5-phenyl-6,7-dihydro-5H-pyrrolo[1,2-b][1,2,4]triazol-2-yl]-[rac-(1S,5S)-3-oxabicyclo[3.1.0]hexan-1-yl]methanone]	–	230 nM
O=C(c1nc2n(n1)[C@H](c1ccccc1)C[C@@H]2F)[C@H](O)C(F)(F)F (racemic) [Example 134, rac-(2S)-3,3,3-trifluoro-2-hydroxy-1-[rac-(5S,7S)-7-fluoro-5-phenyl-6,7-dihydro-5H-pyrrolo[1,2-b][1,2,4]triazol-2-yl]propan-1-one]	–	220 nM
CCC(=O)c1nc2n(n1)[C@H](c1ccccc1)C[C@@H]2F (racemic) [Example 47, 1-[rac-(5S,7S)-7-fluoro-5-phenyl-6,7-dihydro-5H-pyrrolo[1,2-b][1,2,4]triazol-2-yl]propan-1-one]	3.56 nM	–
O=C(c1nc2n(n1)[C@H](c1ccccc1)C[C@@H]2F)C1CCCOC1 (mixture of isomers) [Example 127, [rac-(5S,7S)-7-fluoro-5-phenyl-6,7-dihydro-5H-pyrrolo[1,2-b][1,2,4]triazol-2-yl]-tetrahydropyran-3-yl-methanone]	–	16 nM

Structure (SMILES)	Ki [1]	Ki [2]
CC(F)(F)[C@@H]1C[C@H](F)c2nc(C(=O)C3CC3)nn21 (racemic) [Example 122, cyclopropyl-[rac-(5S,7S)-5-(1,1-difluoroethyl)-7-fluoro-6,7-dihydro-5H-pyrrolo[1,2-b][1,2,4]triazol-2-yl]methanone]	–	360 nM
O=C(c1ccccn1)c1nc2n(n1)[C@H](c1ccccc1)C[C@@H]2F (racemic) [Example 33, (rac-(5S,7S)-7-fluoro-5-phenyl-6,7-dihydro-5H-pyrrolo[1,2-b][1,2,4]triazol-2-yl)-(2-pyridyl)methanone]	2360 nM	–
O=C(c1nc2n(n1)[C@@H](c1ccccc1)C[C@H]2F)C1CCC1 (racemic) [Example 43, cyclobutyl-[rac-(5R,7R)-7-fluoro-5-phenyl-6,7-dihydro-5H-pyrrolo[1,2-b][1,2,4]triazol-2-yl]methanone]	12 nM	–
O=C(c1nc2n(n1)[C@H](c1ccccc1)C[C@@H]2F)C1(CO)CC1 (racemic) [Example 58, [1-(hydroxymethyl)cyclopropyl]-[rac-(5S,7S)-7-fluoro-5-phenyl-6,7-dihydro-5H-pyrrolo[1,2-b][1,2,4]triazol-2-yl]methanone]	28.7 nM	–
CCC(=O)c1nc2n(n1)[C@@H](c1ccccc1)C[C@@H]2F (racemic) [Example 13, 1-[rac-(5R,7S)-7-fluoro-5-phenyl-6,7-dihydro-5H-pyrrolo[1,2-b][1,2,4]triazol-2-yl]propan-1-one]	193 nM	–
O=C(c1nc2n(n1)[C@H](c1ccccc1)C[C@@H]2F)c1cccs1 (racemic) [Example 41, (rac-(5S,7S)-7-fluoro-5-phenyl-6,7-dihydro-5H-pyrrolo[1,2-b][1,2,4]triazol-2-yl)-(2-thienyl)methanone]	26.7 nM	–
C[C@]1(C(=O)c2nc3n(n2)[C@H](c2ccccc2)C[C@@H]3F)CCOC1 (racemic) [Example 138, [rac-(5S,7S)-7-fluoro-5-phenyl-6,7-dihydro-5H-pyrrolo[1,2-b][1,2,4]triazol-2-yl]-[rac-(3S)-3-methyltetrahydrofuran-3-yl]methanone]	–	< 5 nM
O=C(CC1CCOCC1)c1nc2n(n1)[C@H](c1ccccc1)C[C@@H]2F (racemic) [Example 136, 1-[rac-(5S,7S)-7-fluoro-5-phenyl-6,7-dihydro-5H-pyrrolo[1,2-b][1,2,4]triazol-2-yl]-2-tetrahydropyran-4-yl-ethanone]	–	32 nM
O=C(c1nc2n(n1)[C@H](c1ccccc1)C[C@@H]2F)[C@H]1C[C@@H]1C(F)(F)F (racemic) [Example 160, [rac-(5S,7S)-7-fluoro-5-phenyl-6,7-dihydro-5H-pyrrolo[1,2-b][1,2,4]triazol-2-yl]-[rac-(1S,2S)-2-(trifluoromethyl)cyclopropyl]methanone]	–	3 nM
N#CC1CC1C(=O)c1nc2n(n1)[C@H](c1ccccc1)C[C@@H]2F (mixture of isomers) [Example 86, 2-[rac-(5S,7S)-7-fluoro-5-phenyl-6,7-dihydro-5H-pyrrolo[1,2-b][1,2,4]triazole-2-carbonyl]-cyclopropanecarbonitrile]	–	160 nM
O=C(COC(F)(F)F)c1nc2n(n1)[C@H](c1ccccc1)C[C@@H]2F (racemic) [Example 142, 1-[rac-(5S,7S)-7-fluoro-5-phenyl-6,7-dihydro-5H-pyrrolo[1,2-b][1,2,4]triazol-2-yl]-2-(trifluoromethoxy)ethanone]	–	9 nM
CCC(=O)c1nc2n(n1)[C@H](c1ccccc1)[C@@H](F)C2 (racemic) [Example 32, 1-[rac-(5R,6S)-6-fluoro-5-phenyl-6,7-dihydro-5H-pyrrolo[1,2-b][1,2,4]triazol-2-yl]propan-1-one]	737 nM	–
O=C(c1nc2n(n1)[C@H](c1ccccc1)C[C@@H]2F)C1(F)CC1 (racemic) [Example 53, (1-fluorocyclopropyl)-(rac-(5S,7S)-7-fluoro-5-phenyl-6,7-dihydro-5H-pyrrolo[1,2-b][1,2,4]triazol-2-yl)methanone]	22.4 nM	–
O=C(CC1CCCCO1)c1nc2n(n1)[C@H](c1ccccc1)C[C@@H]2F (mixture of isomers) [Example 135, 1-[rac-(5S,7S)-7-fluoro-5-phenyl-6,7-dihydro-5H-pyrrolo[1,2-b][1,2,4]triazol-2-yl]-2-tetrahydropyran-2-yl-ethanone]	–	180 nM
C[C@@]1(C(=O)c2nc3n(n2)[C@H](c2ccccc2)C[C@@H]3F)CCOC1 (racemic) [Example 137, [rac-(5S,7S)-7-fluoro-5-phenyl-6,7-dihydro-5H-pyrrolo[1,2-b][1,2,4]triazol-2-yl]-[rac-(3R)-3-methyltetrahydrofuran-3-yl]methanone]	–	< 5 nM
Cn1cc(C(=O)c2nc3n(n2)[C@@H](c2ccccc2)C[C@H]3F)cn1 (stereo in doubt) [Example 39, (1-methylpyrazol-4-yl)-[rac-(5R,7R)-7-fluoro-5-phenyl-6,7-dihydro-5H-pyrrolo[1,2-b][1,2,4]triazol-2-yl]methanone]	225 nM	–
